Biological target: T1, rhGBA1 (Homo sapiens, UniProt P04062, R534H)
T1 construct: purchased Sanofi Genzyme (gift) Cerezyme®
T1 sequence (P04062 40-536 R534H): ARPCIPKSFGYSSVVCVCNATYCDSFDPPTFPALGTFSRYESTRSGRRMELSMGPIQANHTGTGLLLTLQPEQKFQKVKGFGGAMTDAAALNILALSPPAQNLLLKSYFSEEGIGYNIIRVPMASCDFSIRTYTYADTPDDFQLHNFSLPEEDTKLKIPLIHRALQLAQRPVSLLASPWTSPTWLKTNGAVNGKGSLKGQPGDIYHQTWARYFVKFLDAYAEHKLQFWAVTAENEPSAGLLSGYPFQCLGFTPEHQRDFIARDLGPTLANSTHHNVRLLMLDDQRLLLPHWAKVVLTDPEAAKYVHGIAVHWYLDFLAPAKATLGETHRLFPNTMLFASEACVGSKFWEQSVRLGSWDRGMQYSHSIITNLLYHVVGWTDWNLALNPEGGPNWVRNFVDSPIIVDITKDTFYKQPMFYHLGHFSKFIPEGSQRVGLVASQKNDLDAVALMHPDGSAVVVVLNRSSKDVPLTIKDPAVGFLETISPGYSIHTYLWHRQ
Experiment: Labelling of GBA2 OE lysate spiked with rhGBA1, residual rhGBA1 read out with ABP 10 or 11
Format: biochemical
Settings: GBA2 OE lysate spiked with 3 ng rhGBA1; 30 min
Method: To this end, lysates of HEK293T cells containing all β-glucosidases (endogenous GBA1 with overexpressed GBA2 and GBA3) were treated with ABPs 3, 4, 5 or 7, followed by protein separation by SDS-PAGE and fluorescence scanning of the wet gel slabs. […] In contrast, the β-D-Araf aziridine ABPs 3 and 4 selectively labelled GBA2 at a concentration of 100 nM, while Cy5 tagged ABP 5 did so at 500 nM. The GBA2 selectivity of β-D-Araf cyclitol aziridines 3, 4 and 5 was confirmed in a mixture of a lysate of overexpressed GBA2 cells spiked with 3 ng rhGBA1 (Fig. 2C and ESI Fig. S3 ^†). […] Therefore, only a combined inactivation rate constant (kinact) and binding constant (KI) ratio (kinact/KI) could be measured. […] Importantly, no labelling of GBA1 or GBA3 was detected under varying pH and time conditions (ESI Fig. S4-2 ^†). […]
2.8 β-Glucosidase inactivation visualized by competitive ABPP with SDS-PAGE In general, samples containing GBA1, GBA2 or GBA3 (see the exact constitution of these samples in the described case) are first incubated (in vitro or in situ) with the inactivator compounds, subsequently, the fluorescent readout ABPs were added and incubated with the mixture to reveal the residual active β-glucosidase enzymes. […]

CC1=CC(C)=[N+]2C1=C(CCCCc1cn(CCCCCCCCN3[C@@H]4[C@H](CO)[C@@H](O)[C@H](O)[C@@H]43)nn1)c1c(C)cc(C)n1[B-]2(F)F (some centres unmarked) [ABP 3]
Concentration at which marginal GBA1 labelling occurs: 10 µM

COc1ccc(C2=[N+]3C(=C(CCCCc4cn(CCCCCCCCN5[C@@H]6[C@H](CO)[C@@H](O)[C@H](O)[C@@H]65)nn4)c4ccc(-c5ccc(OC)cc5)n4[B-]3(F)F)C=C2)cc1 (some centres unmarked) [ABP 4]
Concentration at which marginal GBA1 labelling occurs: 10 µM

Reference: PMC11375437, “Selective labelling of GBA2 in cells with fluorescent β-D-arabinofuranosyl cyclitol aziridines” (Chemical Science, 2024)
